Values after ≈ are worked out from the molar mass of the structure shown. Structures can show the parent of a compound that is named as a salt. Blank lines part the entries; values can stand above or below the compound they belong to.
Assays:
[1] = cited from earlier work
[2] = according to WO2007/144005A1 / US9562024B2; hydrobromide; cited from earlier work
[3] = cited from earlier work; remark: listed apart in the source
[4] = Stability test under accelerated stability conditions (ICH), crystalline phase checked by XRPD; assay type: physicochemical; details: 40 °C / 75±5% RH
Experimental: The samples were analyzed by XRPD to observe if the crystalline phase was stable (see Table 2).

[5] = compared with vortioxetine hydrobromide Form β (example 140 of US9562024B2); cited from earlier work
[6] = Comparative kinetic solubility study in water at room temperature (HPLC vortioxetine peak area, pH and XRPD of filtered solid); details: for Analysis 1 XRPD / Analysis 2 XRPD / Analysis 1 pH / Analysis 2 pH: Form β study; for Analysis 1 XRPD / Analysis 2 XRPD: filtered solid; for Analysis 1 pH / Analysis 2 pH: mother liquor
Experimental: A comparative kinetic solubility study of the cocrystal of vortioxetine·HBr and resorcinol 2:1 Form I and with vortioxetine·HBr Form β was performed in water at room temperature (RT). The relative solubility of vortioxetine was obtained by comparison of the vortioxetine peak area in the HPLC analyses of the mother liquors.
The solubility tests were performed in a minireactor HME-R, provided with a 250 mL vessel, a temperature sensor and mechanical stirring.
1 g of each material was stirred in water (150 ml, […]) at 350 rpm. Aliquots of ca. 5 ml of suspension were filtered in a sintered glass funnel (#4) at different times: 30, 60, 180 min and 24 h. After filtration, the pH of the mother liquor was determined. 1 mL of mother liquor was measured with a pipette and diluted to 10 mL with water in a volumetric flask. A portion of this solution was filtered again through a 0.20 µm nylon filter and directly analyzed by HPLC (2 injections for each sample). The filtered solids were analyzed by XRPD, without a drying step, to determine the crystalline phase corresponding to the measured solubility.
The HPLC conditions were the following:
The kinetic solubility of cocrystal vortioxetine hydrobromide and resorcinol Form I and vortioxetine·HBr Form β at room temperature in water was determined in duplicate.

[7] = water, room temperature, 30 min
[8] = water, room temperature, 60 min
[9] = water, room temperature, 180 min

Compound: Cc1ccc(Sc2ccccc2N2CCNCC2)c(C)c1 [hemihydrate of vortioxetine hydrobromide, vortioxetine hydrobromide]
- hygroscopicity (in words) ([1]; according to WO2007/144005A1 / US9562024B2): hygroscopic
- stability [2]: unstable

Compound: Cc1ccc(Sc2ccccc2N2CCNCC2)c(C)c1 [ethyl acetate solvate of vortioxetine hydrobromide]
- stability [2]: unstable

Compound: Cc1ccc(Sc2ccccc2N2CCNCC2)c(C)c1 [Form α of vortioxetine hydrobromide, vortioxetine hydrobromide]
- solubilities in water ([3]; Examples 4b and 4d of WO2007/144005A1, listed as vortioxetine hydrobromide Form α, hydrobromide): 2 mg/mL
- stability [2]: unstable and is transformed to the Form β of vortioxetine hydrobromide at room temperature

Compound: Cc1ccc(Sc2ccccc2N2CCNCC2)c(C)c1 [Vortioxetine, 1-[2-(2,4-dimethyl-phenylsulfanyl)-phenyl]piperazine]
- solubility in water ([3]; 25 °C): 7.8 µg/mL (≈ 26.1 µM)

- XRPD ([4]; 7 days): stable
- XRPD ([4]; 14 days): stable
- XRPD ([4]; 21 days): stable
- XRPD ([4]; 28 days): stable
- XRPD ([4]; 28 days, listed as cocrystal of vortioxetine hydrobromide and resorcinol Form I): remained stable
- XRPD ([4]; 28 days, listed as cocrystal of vortioxetine·HBr and resorcinol Form I): remained stable
Compound: Br.Br.Cc1ccc(Sc2ccccc2N2CCNCC2)c(C)c1.Cc1ccc(Sc2ccccc2N2CCNCC2)c(C)c1.Oc1cccc(O)c1 [cocrystal Form I, cocrystal of vortioxetine hydrobromide and resorcinol]

Compound: Cc1ccc(Sc2ccccc2N2CCNCC2)c(C)c1 [vortioxetine hemihydrobromide]
- kinetic solubility [5]: much lower

- XRPD ([4]; 7 days): stable
- XRPD ([4]; 14 days): stable
- XRPD ([4]; 21 days): stable
- XRPD ([4]; 28 days, hydrobromide): stable
- XRPD ([4]; 28 days, listed as Vortioxetine•HBr Form β, hydrobromide): remained stable
- maximum of solubility afforded after [6]: three hours
- spring and parachute effect [6]: not seen
- Analysis 1 Average Form β (Vortioxetine area) ([6]; 30 min): 564
- Analysis 2 Average Form β (Vortioxetine area) ([6]; 30 min): 427
- Average Vortioxetine area ([6]; 30 min): 495
- Analysis 1 Average Form β (Vortioxetine area) ([6]; 60 min): 550
- Analysis 2 Average Form β (Vortioxetine area) ([6]; 60 min): 537
- Average Vortioxetine area ([6]; 60 min): 544
- Analysis 1 Average Form β (Vortioxetine area) ([6]; 180 min): 579
- Analysis 2 Average Form β (Vortioxetine area) ([6]; 180 min): 561
- Average Vortioxetine area ([6]; 180 min): 570
- Analysis 1 Average Form β (Vortioxetine area) ([6]; 24 h): 572
- Analysis 2 Average Form β (Vortioxetine area) ([6]; 24 h): 581
- Average Vortioxetine area ([6]; 24 h): 576
- Analysis 1 XRPD [6, 7]: Form β
- Analysis 2 XRPD [6, 7]: Form β
- Analysis 1 XRPD [6, 8]: Form β
- Analysis 2 XRPD [6, 8]: Form β
- Analysis 1 XRPD [6, 9]: Form β
- Analysis 2 XRPD [6, 9]: Form β
- Analysis 1 XRPD ([6]; water, room temperature, 24 h): Form β
- Analysis 2 XRPD ([6]; water, room temperature, 24 h): Form β
- Analysis 1 pH [6, 7]: 4.9
- Analysis 2 pH [6, 7]: 5.3
- Analysis 1 pH [6, 8]: 4.8
- Analysis 2 pH [6, 8]: 5.1
- Analysis 1 pH [6, 9]: 4.8
- Analysis 2 pH [6, 9]: 5.1
- Analysis 1 pH ([6]; water, room temperature, 24 h): 5.6
- Analysis 2 pH ([6]; water, room temperature, 24 h): 5.5
- crystalline form after 24 hours in water dispersion ([6]; water, room temperature, 24 hours, XRPD): unchanged
- pH ([6]; water, room temperature, remaining constant over the study): 4-5
Compound: Cc1ccc(Sc2ccccc2N2CCNCC2)c(C)c1 [Vortioxetine·HBr Form β, vortioxetine hydrobromide]

Compound: Cc1ccc(Sc2ccccc2N2CCNCC2)c(C)c1 [Form γ of vortioxetine hydrobromide, vortioxetine hydrobromide]
- hygroscopicity ([1]; under low-humidity conditions): 2.0%
- stability [2]: very unstable

Source: patent publication EP3412661A1, “COCRYSTALS OF VORTIOXETINE HYDROBROMIDE AND RESORCINOL” (Enantia, S.L., priority 2017, dated 2018)
